From patent EP2371816A1, “Aminocyclohexenone, their preparation and use as medicament against oxidative stress” (ABIOGEN PHARMA S.p.A., priority 2010, dated 2011)
Blank lines part the entries; values can stand above or below the compound they belong to.

How the values were obtained:
[1] = pH at the semi-neutralization point of titration (pKa); format: physicochemical; conditions: titration with 0.1 N NaOH or HCl
Procedure: The following equipment was used during the implementation of all the examples: • for melting point determination a Buchi B-540 instrument was used; • for pH determination at the semi-neutralization point of titration (pKa) a Mettler Toledo DL-50 instrument was used with a 0.1 N xNaOH or HCl solution; • the ^1H-NMR spectra were recorded at 300 MHz and the ^13C-NMR spectra were recorded at 75 MHz using a Varian Unity 300 instrument; • spectrophotometric measurements were carried out using a Lambda Perkin Elmer 15 UV/Vis spectrophotometer for the DPPH assay and a Wallac Victor 1420 multilabel counter spectrophotometer.

[2] = system: cerebral oxidative stress induced in mice by doxorubicin; assay: In vivo assay of cerebral oxidative stress induced in mice by doxorubicin; conditions: for Brain/BWi its own / CAT/pr its own / GPX/pr its own / GSH/pr its own / GST/pr its own / Prot. Hmg its own / Prot. Ox/pr its own / SOD/pr its own / Brain/BWi vehicle / CAT/pr vehicle / GPX/pr vehicle / GSH/pr vehicle / GST/pr vehicle / Prot. Hmg vehicle / Prot. Ox/pr vehicle / SOD/pr vehicle: % inhibition relative to variation due to doxorubicin alone, oxidized animals; for Brain/BWi its own / CAT/pr its own / GPX/pr its own / GSH/pr its own / GST/pr its own / Prot. Hmg its own / Prot. Ox/pr its own / SOD/pr its own: as function of its own control; for Brain/BWi vehicle / CAT/pr vehicle / GPX/pr vehicle / GSH/pr vehicle / GST/pr vehicle / Prot. Hmg vehicle / Prot. Ox/pr vehicle / SOD/pr vehicle: as function of vehicle; for Brain/BWi / CAT/pr / GPX/pr / GSH/pr / GST/pr / Prot. Hmg / Prot. Ox/pr / SOD/pr: % variation relative to the vehicle, 50 mg/kg IP x3 days (D = doxorubicin alone); for Brain/BWi / CAT/pr / GPX/pr / GSH/pr / GST/pr / Prot. Hmg / Prot. Ox/pr / SOD/pr / Mean % variation relative to the vehicle: healthy animals; for Mean % variation relative to the vehicle: 50 mg/kg IP days 0, 1 and 2, mean over all parameters, approximate safety index (D = doxorubicin alone); for overall percentage inhibition: with respect to Its own vehicle
Procedure: The assay was carried out on compounds (1) and (3)-(6) and on edaravone (E) as comparative compound.
10 mice were used for each treatment group. For each compound 50 mg/kg were administered intraperitoneally (IP) for three consecutive days (day 0, 1 and 2); half the animals (5) also received IP 16.7 mg/kg of doxorubicin immediately after the first treatment (day 0). On the day after the last administration (day 3) the animals were killed by neck dislocation and the brains were removed, weighed and frozen in liquid nitrogen.
For the analyses of oxidative stress, 100 mg/ml of brain homogenate was prepared in Hebe buffer (pH 7.4 EDTA/HEPES^(**)) containing a mixture of enzyme inhibitors (Leupeptin, Pepstatin, Aprotinin, BHA). • ^(*) Hypotonic Extraction Buffer • ^(**) 4-2-hydroxyethyl-1-piperazinyl-ethanesulphonic acid
The evaluation parameters were: • BrW/BWi: ratio between final brain weight and initial body weight (day 0); • Prot. Hmg: total proteins in the homogenate (BCA method, i.e. bicinchoninic acid); • Prot. Ox: oxidized proteins in the Hmg by means of a colorimetric method using […] (DNPH); • GSH: reduced glutathione in the supernatant (sn) of the Hmg, obtained after precipitation with metaphosphoric acid (MPA), by means of a colorimetric method using […] (DTNB); • CAT: catalase in the Hmg by a colorimetric method using potassium dichromate; • SOD: superoxide dismutase by a colorimetric method using SOD Reagent (xanthine, EDTA, nitroblue tetrazole, Na2CO3, BSA, i.e. bovine serum albumin); • GST: glutathione S-transferase in the supernatant by a colorimetric method using chlorodinitrobenzene (CDNB) and GSH; and • GPx: glutathione peroxidase in the supernatant after addition of GSH and tert butyl hydroperoxide (t-BuOOH), heating and precipitation with MPA; followed by GSH method with DTNB.
All the parameters, with the exclusion of Brain/BWi and Prot. Hmg, were normalized for total Hmg proteins (Table 3). The D value standard deviations and the % incidence relative to V are given in italics.
The mean % effect, on all the parameters simultaneously, of the triple treatment in the healthy animals, as mean percentage variation relative to the vehicle (table 4). This value is useful as an approximate safety index of the oxidative state of the brain, i.e. the capacity of the compounds of the invention not to alter cerebral homeostasis in healthy animals.
The effect of the tested compounds on the "oxidized" animals was given as % inhibition relative to the percentage variation due to doxorubicin alone. The effect of the compounds on the oxidized animals can be expressed both as a function of the values of the vehicle (healthy, vehicle only) and as a function of the value of its own control (healthy, compound only): • Vehicle: percentage [(Compound+D)/V]x100/[(V+D)/V]x100 • Its own: percentage [(Compound+D)/Compound]x100/[(V+D)/V]x100

[3] = mouse, in vivo
Procedure: The ability of the compounds of the invention to penetrate the brain was investigated by measuring their brain/plasma (B/P) concentration ratio in mice following intraperitoneal administration.
Female CD-1 mice were used (n=3 for each time period) and received the compounds of the invention by intraperitoneal administration, in 25 mg/kg doses in a 0.5% NaHCO3 buffer (pH 8.3). At predefined intervals following said administration, i.e. 5, 15, 30 and 60 minutes, the mice were killed and both plasma and total brain tissue were collected.
Specifically, after anaesthesia with ether, the animals were bled by blood withdrawal from the abdominal aorta then immediately decapitated. The blood samples were collected into plasma separator tubes containing Li-Heparin as anticoagulant and centrifuged. The resulting plasma was then stored at -20 °C. The brain was rapidly removed from the cranium and weighed, subsequently frozen and stored at -20 °C before treatment by homogenization and HPLC analysis.
The plasma was thawed and mixed with an equal volume of the extraction solution. This extraction solution was a mixture of aqueous and organic solvents whose composition had been previously determined by HPLC undertaken for each analyte.
1 ml of solution was then extracted by adding 20 µl of 70% HClO4 then centrifuged at 15,500g for 5 minutes and injected into the HPLC.
Each brain was thawed and homogenized with the extraction solution to provide a final composition of 4 ml/1g of tissue by means of an Ultra-Turrax blender and sonicated for 5 minutes. After centrifugation of the homogenate at 15,500g for 5 minutes, the resulting solution was treated with HClO4, as indicated for the plasma.
Specific chromatographic conditions had been developed for each analyte, the calibration curve being constructed for plasma and brain homogenate.

Compound: CC1(C)CC(=O)C=C(NCCN2CCCCC2)C1 [(1), 5,5-dimethyl-3-(2-(piperidin-1-yl)ethylamino)cyclohex-2-enone]
Acid dissociation constants: pKa1 [1]: 2.82
Acid dissociation constants: pKa2 [1]: 8.64
Brain/BWi its own [2]: -76.8%
CAT/pr its own [2]: -32.6%
GPX/pr its own [2]: -16.2%
GSH/pr its own [2]: -8.8%
GST/pr its own [2]: 5.5%
Prot. Hmg its own [2]: -16.9%
Prot. Ox/pr its own [2]: -95.9%
SOD/pr its own [2]: -9.1%
Brain/BWi vehicle [2]: -33.3%
CAT/pr vehicle [2]: 77.3%
GPX/pr vehicle [2]: 22.2%
GSH/pr vehicle [2]: -2.4%
GST/pr vehicle [2]: 16.5%
Prot. Hmg vehicle [2]: 22.9%
Prot. Ox/pr vehicle [2]: -82.6%
SOD/pr vehicle [2]: 29.4%
Brain/BWi [2]: -3.2%
CAT/pr [2]: -7.1%
GPX/pr [2]: -7.6%
GSH/pr [2]: -1.5%
GST/pr [2]: -2.3%
Prot. Hmg [2]: 5.3%
Prot. Ox/pr [2]: 1.4%
SOD/pr [2]: -5.9%
Mean % variation relative to the vehicle [2]: -4.3%
overall percentage inhibition [2]: greater than 40%
bioavailability at the target site / crossing of the blood-brain barrier [3]: particularly bioavailable, as well as able to cross the blood-brain barrier in effective amounts

Acid dissociation constants: pKa1 [1]: 2.82
Acid dissociation constants: pKa2 [1]: 8.46
Brain/BWi [2]: 1.0%
CAT/pr [2]: -9.2%
GPX/pr [2]: 2.4%
GSH/pr [2]: 0.4%
GST/pr [2]: 4.1%
Prot. Hmg [2]: 2.3%
Prot. Ox/pr [2]: -7.8%
SOD/pr [2]: 1.1%
Compound: O=C1C=C(NCCN2CCCCC2)CC(c2ccccc2)C1 (centres unmarked) [(3), 5-phenyl-3-(2-(piperidin-1-yl)ethylamino)cyclohex-2-enone]
Brain/BWi its own [2]: -30.4%
CAT/pr its own [2]: -48.5%
GPX/pr its own [2]: 23.2%
GSH/pr its own [2]: 0.0%
GST/pr its own [2]: 37.4%
Prot. Hmg its own [2]: -101.2%
Prot. Ox/pr its own [2]: -116.3%
SOD/pr its own [2]: 107.7%
Brain/BWi vehicle [2]: -76.8%
CAT/pr vehicle [2]: 3.0%
GPX/pr vehicle [2]: -20.2%
GSH/pr vehicle [2]: -7.2%
GST/pr vehicle [2]: -48.4%
Prot. Hmg vehicle [2]: -32.5%
Prot. Ox/pr vehicle [2]: -107.0%
SOD/pr vehicle [2]: 86.7%
Mean % variation relative to the vehicle [2]: -1.3%
overall percentage inhibition [2]: greater than 40%
bioavailability at the target site / crossing of the blood-brain barrier [3]: particularly bioavailable, as well as able to cross the blood-brain barrier in effective amounts

Compound: CC1(C)CC(=O)C=C(NN2CCCCC2)C1 [(6), 5,5-dimethyl-3-(piperidin-1-ylamino)cyclohex-2-enone]
pKa ([1]; read-out: Acid dissociation constant: pKa): 2.62
Brain/BWi its own [2]: -18.8%
CAT/pr its own [2]: -28.8%
GPX/pr its own [2]: -100.0%
GSH/pr its own [2]: -72.8%
GST/pr its own [2]: -36.3%
Prot. Hmg its own [2]: -97.6%
Prot. Ox/pr its own [2]: 45.9%
SOD/pr its own [2]: -60.8%
Brain/BWi vehicle [2]: 10.1%
CAT/pr vehicle [2]: 6.8%
GPX/pr vehicle [2]: -34.3%
GSH/pr vehicle [2]: -10.4%
GST/pr vehicle [2]: -18.7%
Prot. Hmg vehicle [2]: -8.4%
Prot. Ox/pr vehicle [2]: 21.5%
SOD/pr vehicle [2]: -2.1%
Brain/BWi [2]: -2.5%
CAT/pr [2]: -6.4%
GPX/pr [2]: -8.7%
GSH/pr [2]: -9.6%
GST/pr [2]: -2.5%
Prot. Hmg [2]: 8.4%
Prot. Ox/pr [2]: -5.6%
SOD/pr [2]: -10.8%
Mean % variation relative to the vehicle [2]: -5.4%
overall percentage inhibition [2]: greater than 40%
bioavailability at the target site / crossing of the blood-brain barrier [3]: particularly bioavailable, as well as able to cross the blood-brain barrier in effective amounts
